According to patent US4548923A, “Muramyl peptides and processes for their manufacture” (Ciba Geigy Corporation, priority 1982, dated 1985):

Assays:
Alveolar rat macrophages = assay: macrophage activation: cytotoxicity of alveolar rat macrophages against 125I-marked tumour cells; type: cell-based
Method: Alveolar rat macrophages are obtained by lung washing, plated out and incubated in vitro for 24 hours either with liposomes that are charged with the active ingredient, or with the active ingredient in physiological salt solution (phosphate buffered saline, PBS), ^125 I-marked tumour cells are added and incubation is continued for a further 72 hours. Subsequently the dead tumour cells are washed away and the number of tumour cells still living is determined on the basis of their radioactivity. […] The specific cytotoxicity [%] is calculated as follows: [formula]
Further details of the above-mentioned test method are described in I. J. Fidler et. al., J. Biol. Response Modifiers 1, 43-55 (1982).

[1] = test for pyrogenity in rabbits (European Pharmacopoeia); type: in vivo; settings: subcutaneous administration, 30 mg/kg
Excerpt: The test for pyrogenity can be carried out in rabbits in accordance with the instructions given in European Pharmacopoeia, Vol. 2, pages 56-59 (1971).

[2] = Active ingredient in 100 μg of lipsomes per 0.2 ml, 0.2 μg/culture
[3] = Active ingredient in 100 μg of lipsomes per 0.2 ml, 2 μg/culture
[4] = Active ingredient in 100 μg of lipsomes per 0.2 ml, 20 μg/culture
[5] = Active ingredient in 0.2 ml of PBS, 0.2 μg/culture
[6] = Active ingredient in 0.2 ml of PBS, 2 μg/culture
[7] = Active ingredient in 100 μg of lipsomes per 0.2 ml, 0.02 μg/culture
[8] = Active ingredient in 0.2 ml of PBS, 0.02 μg/culture

Compound	Specific cytotoxity [%] (Alveolar rat macrophages; [2])	Specific cytotoxity [%] (Alveolar rat macrophages; [3])	Specific cytotoxity [%] (Alveolar rat macrophages; [4])	Specific cytotoxity [%] (Alveolar rat macrophages; [5])	Specific cytotoxity [%] (Alveolar rat macrophages; [6])	pyrogenic effect [1]	Specific cytotoxity [%] (Alveolar rat macrophages; [7])	Specific cytotoxity [%] (Alveolar rat macrophages; [8])	Specific cytotoxity [%] (Alveolar rat macrophages; Active ingredient in 0.2 ml of PBS, 20 μg/culture)
CCCCCCCCCCCCCCCC(=O)OC[C@H](COP(=O)([O-])OCCNC(=O)[C@H](C)NC(=O)CC[C@@H](NC(=O)[C@H](C)NC(=O)[C@@H](C)O[C@H]1[C@H](O)[C@@H](CO)OC(O)[C@@H]1NC(C)=O)C(=O)OCCCC)OC(=O)CCCCCCCCCCCCCCC.[Na+] (stereo partly drawn) [Active ingredient I, the sodium salt of N-acetylmuramyl-L-alanyl-D-glutamyl-(Cα)-n-butyl ester-(Cγ)-L-alanine-2-(1,2-dipalmitoyl-sn-glycero-3-hydroxyphosphoryloxy)-ethylamide]	56%	51%	44%	39%	59%	no pyrogenic effect	–	–	–
CCCCCCCCCCCCCCCC(=O)OCC(COP(=O)([O-])OCCNC(=O)C(C)NC(=O)CCC(NC(=O)C(C)NC(=O)C(C)OC1C(O)C(CO)OC(O)C1NC(C)=O)C(N)=O)OC(=O)CCCCCCCCCCCCCCC.[Na+] [sodium salt of N-acetylmuramyl-L-alanyl-D-isoglutaminyl-L-alanine-2-(1,2-dipalmitoyl-sn-glycero-3-hydroxyphosphoryloxy)-ethylamide, reference compound]	–	–	–	–	–	highly pyrogenic	–	–	–
the sodium salt of N--acetylmuramyl-L-valyl-D-glutamyl-(C α)-n-butyl ester-(Cγ)-L-alanine-2-(1,2-dipalmitoyl-sn-glycero-3-hydroxyphosphoryloxy)-ethylamide [compound IV]	68%	52%	–	18%	20%	–	64%	23%	–
the sodium salt of N--acetylmuramyl-L-α-aminobutyryl-D-glutamyl-(Cα)-n-butyl ester-(Cγ)-L-alanine-2-(1,2-dipalmitoyl-sn-glycero-3-hydroxyphosphoryloxy)-ethyl-amide [compound II]	10%	23%	11%	21%	48%	–	–	–	74%
the sodium salt of N-propionylnormuramyl-L-alanyl-D-glutamyl-(Cα)-n-butyl ester-(Cγ)-L-alanine-2-(1,2-dipalmitoyl-sn-glycero-3-hydroxyphosphoryloxy)-ethylamide [Active ingredient II]	76%	79%	–	81%	47%	–	64%	3%	–
